Experimental data from patent US20210040134A1, “COMBINATIONS OF MACROLIDE COMPOUNDS AND IMMUNE CHECKPOINT INHIBITORS” (ISR IMMUNE SYSTEM REGULATION HOLDING AB (PUBL), priority 2018, published 2021).

How the values were obtained:
human TLR2 = target: T1, human TLR2 (Homo sapiens, UniProt O60603); assay: TLR2 reporter assay (HEK-293-TLR, SEAP); format: cell-based; conditions: concentrations up to 20 uM
T1 construct: host or cells: recombinant HEK-293-TLR cell lines
Description: Samples and controls were tested in duplicate on recombinant HEK-293-TLR cell lines using a cell reporter assay at Invivogen using their standard assay conditions. These cell lines functionally over-express human TLR2 protein as well as a reporter gene which is a secreted alkaline phosphatase (SEAP). The production of this reporter gene is driven by an NFkB inducible promoter. The TLR reporter cell lines activation results are given as optical density values (OD).
20 μl of each test article were used to stimulate the hTLR2 reporter cell lines in a 200 μl of final reaction volume. Samples were tested in duplicate, with at least two concentrations tested—20 uM and 10 uM.
Compounds were tested using a TLR2 reporter assay (see general methods) that measured for stimulation of the TLR2 receptor. Stimulatory effect was measured as an increase in optical density (OD) due to release of secreted alkaline phosphatase (SEAP) and is shown in table 4: […]

CD4+ T cells = assay: IL-1 beta secretion from CD4+ T cells (cytometric bead assay); format: cell-based, human; conditions: 2 days
Description: (§1) FIG. 13: IL1 b secretion (as measured by cytometric bead assay) from PBMC, macrophages or CD4 T cells stimulated with indicated compound for 48 h.
(§2) Study 12: PBMCs, macrophages and CD4+ T cells where exposed to compounds 1 and 2 for 2 days.

[1] = system: peripheral blood mononuclear cells (PBMC); assay: Marker expression on stimulated PBMC by flow cytometry; format: cell-based, human; conditions: 24 h
Description: Human peripheral blood mononuclear cells (PBMCs) were purified from healthy donors with Ficoll-Paque density centrifugation. Cells were cultured in complete RPMI-1640 media (Invitrogen) supplemented with 25 mM HEPES, L-glutamine, Sodium pyruvate (Sigma), 10% fetal bovine serum, 100 μg/mL penicillin and 100 μg/mL streptomycin (Hyclone) for 24-72 hours in 37° C., 5% CO2 and stimulated with and increasing concentrations of compound 1 and 2. Cells were then washed in PBS and stained with monoclonal antibodies specific for cell surface markers (BD Pharmingen) and analysed with flow cytomtetry using a BD FACS Canto II flow cytometer. All samples were tested in duplicates.
Human peripheral blood mononuclear cells (PBMCs) were purified from healthy donors with Ficoll-Paque density centrifugation. Cells were cultured in complete RPMI-1640 medium (Invitrogen) supplemented with 25 mM HEPES, L-glutamine, Sodium pyruvate (Sigma), 10% fetal bovine serum, 100 μg/mL penicillin and 100 μg/mL streptomycin (Hyclone). […] The cells were removed from the plate, washed in PBS and analysed for expression of cell specific surface markers and MHC class I with flow cytomtery using monoclonal antibodies from BD Pharmingen and a FACS Canto II flow cytometer.

[2] = Human microsome stability assay; format: in vitro ADME; conditions: pH 7.4, human liver microsomes, read-out: T½
Description: Rate of metabolism in microsomes was tested as follows:
Human liver microsomes were diluted with buffer C (0.1 M Potassium Phosphate buffer, 1.0 mM EDTA, pH 7.4) to a concentration of […]. Microsomal stability studies were carried out by adding 30 μL of 1.5 μM compound spiking solution to wells (1.5 μL of 500 μM spiking solution (10 μL of 10 mM DMSO stock solution into 190 μL ACN to eventually generate final test concentration of 1 uM) and 18.75 μL of 20 mg/mL liver microsomes into 479.75 μL of Buffer C). All samples were pre-incubated for approximately 15 minutes at 37° C. Following this, the reaction was initiated by adding 15 μL of the NADPH solution (6 mM) with gentle mixing. Aliquots (40 μL) were removed at 0, 5, 15, 30 and 45 minutes and quenched with ACN containing internal standard (135 μL). Protein was removed by centrifugation (4000 rpm, 15 min) and the sample plate analysed for compound concentration by LC-MS/MS. Half-lives were then calculated by standard methods, comparing the concentration of analyte with the amount originally present.
The metabolic stability of the compounds of the invention was assessed in a standard human microsome stability assay (see general methods).

macrophages = assay: Cytokine secretion from macrophages (cytometric bead assay); format: cell-based, human
Description: FIG. 10: Interferon-gamma secretion (as measured by cytometric bead assay) from macrophages stimulated with indicated compound for 48 h.
(§3) FIG. 11: Chemokine RANTES secretion (as measured by cytometric bead assay) from PBMC or macrophages stimulated with indicated compound for 48 h.
(§4) FIG. 12: IL12p70 secretion (as measured by cytometric bead assay) from PBMC or macrophages stimulated with indicated compound for 48 h.
as §1
Study 9: Macrophages from healthy donors where exposed to compounds 1 or 2 for 48 hours. […] Compound 1 is therefore able to induce IFN-gamma secretion in macrophages from healthy donors.
(§5) Study 10: PBMCs and macrophages where exposed to compounds 1 or 2 for 2 days (FIG. 11).
(§6) Study 11: PBMCs and macrophages where exposed to compounds 1 and 2 for 2 days.
as §2

C57bl/6 mice = assay: MHC class I expression on CD11b+ splenocytes of mice after i.v. injection; format: in vivo; conditions: spleen removed 24 h later
Description: FIG. 15: % MHC class I high CD11 b+ cells in spleen of 3 individual C57bl/6 mice injected 24 h previously with indicated compound. MHC class I and CD11 b expression was measured by flow cytometry.
Study 14: Compound 1 or 2 was administered i.v. to C57bl/6 mice.

PBMCs = assay: Cytokine secretion from PBMCs (cytometric bead assay); format: cell-based, human; conditions: 2 days
Description: as §3, §4, §1, §5, §6, §2

[3] = system: PBMCs from CMV infected donors; assay: IFN-gamma secretion from PBMCs of CMV infected donors with CMV antigen (cytometric bead assay); format: cell-based, human; conditions: 3 days
From the text: FIG. 9: Interferon-gamma secretion (as measured by cytometric bead assay) from PBMCs (from a CMV+ donor) grown with CMV peptides in the presence or absence of compound 1 or A for 5 days.
Study 8: PBMCs from CMV infected donors cultured in the presence of CMV antigen where either untreated or exposed to compound 1 or compound 2 for 3 days.

T1 sequence (O60603 21-784): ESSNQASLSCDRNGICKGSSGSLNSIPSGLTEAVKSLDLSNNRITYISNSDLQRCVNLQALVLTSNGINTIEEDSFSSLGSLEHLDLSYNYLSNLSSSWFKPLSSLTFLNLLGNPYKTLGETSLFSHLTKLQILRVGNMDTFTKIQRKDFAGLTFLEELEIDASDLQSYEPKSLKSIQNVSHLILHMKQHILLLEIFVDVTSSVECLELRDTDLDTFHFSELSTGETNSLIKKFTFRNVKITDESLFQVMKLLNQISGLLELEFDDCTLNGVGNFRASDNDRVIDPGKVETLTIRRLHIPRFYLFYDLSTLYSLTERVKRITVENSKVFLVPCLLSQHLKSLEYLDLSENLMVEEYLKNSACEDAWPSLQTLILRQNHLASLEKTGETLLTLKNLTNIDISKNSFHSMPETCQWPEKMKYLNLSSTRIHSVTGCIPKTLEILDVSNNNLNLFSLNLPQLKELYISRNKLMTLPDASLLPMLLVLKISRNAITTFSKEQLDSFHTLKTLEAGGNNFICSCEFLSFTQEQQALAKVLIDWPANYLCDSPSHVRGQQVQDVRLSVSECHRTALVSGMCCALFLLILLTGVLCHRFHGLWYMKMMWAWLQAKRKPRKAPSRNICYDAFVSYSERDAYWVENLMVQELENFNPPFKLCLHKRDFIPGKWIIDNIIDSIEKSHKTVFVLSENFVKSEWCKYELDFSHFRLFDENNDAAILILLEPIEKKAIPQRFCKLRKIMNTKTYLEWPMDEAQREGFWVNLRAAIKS

For CC[C@H]1OC(=O)[C@H](C)[C@@H](O[C@H]2C[C@@H](N(C)C)[C@H](O)[C@@H](C)O2)[C@H](C)[C@@H](O)[C@](C)(O)C[C@@H](C)CN(C)[C@H](C)[C@@H](O)[C@]1(C)O [Compound 1], the “TLR2 stimulation (in words)” value (human TLR2) was “stimulated TLR2 at concentrations down to 5 uM”, the “IL-1 beta secretion in CD4+ T cells” value (CD4+ T cells) was “no IL-1 beta was induced” and the “activation marker CD69 on CD4+ T cells and B cells” value ([1]; 1 μM) was “upregulated”. The “MHC class I molecule (HLA-ABC) on T- and B-cells” value [1] was “upregulation”, the half-life at 1 uM [2] was 1.8 h and the “IL-1 beta secretion in macrophages” value (macrophages; 2 days) was “increased”. For the same compound, the “IL-12p70 secretion from macrophages” value (macrophages; 2 days) was “secreted IL-12p70”, the “IFN-gamma secretion from macrophages” value (macrophages; 48 hours) was “secreted IFN-gamma” and the “splenocyte cells with high MHC I expression (CD11b+)” value (C57bl/6 mice) was “induced an increase”. The “IL-1 beta secretion in PBMCs” value (PBMCs) was “slightly”, the “IL-12p70 secretion from PBMCs” value (PBMCs) was “secreted IL-12p70” and the IFN-gamma secretion [3] was “induced secretion of high levels of IFN-gamma”.
